Measurements as given in ChEMBL document CHEMBL5236622, “Krasilnikolides A and B and Detalosylkrasilnikolide A, Cytotoxic 20-Membered Macrolides from the Genus Krasilnikovia: Assignment of Anomeric Configuration by J-Based Configuration Analysis” (J Nat Prod, 2022).
In brackets after ≈: the same amount, converted by molar mass.

Experiments:
P388 = test: Cytotoxicity against mouse P388 cells assessed as inhibition of cell growth incubated for 48 hrs by MTT assay; assay type: functional, cell-based; details: P388, 48 h
Kocuria rhizophila = test: Antibacterial activity against Kocuria rhizophila ATCC9341 assessed as inhibition of bacterial growth incubated for 20 hrs by liquid microculture method; assay type: functional
Staphylococcus aureus = test: Antibacterial activity against Staphylococcus aureus FDA209P JC-1 assessed as inhibition of bacterial growth incubated for 20 hrs by liquid microculture method; assay type: functional

MIC (Kocuria rhizophila) [µg/mL]	MIC (Staphylococcus aureus) [µg/mL]	Compound	IC50 (P388) [µM]
25 (≈ 51.2 µM)	–	C/C=C(\C)[C@H]1OC(=O)[C@H](C)[C@@H](O)/C(C)=C/C=C/[C@H](C)C/C(C)=C/[C@@H](C)[C@H](O)C[C@@H](O)/C(C)=C/[C@H]1C	3.9
25 (≈ 38.5 µM)	–	C/C=C(\CC)[C@H]1OC(=O)[C@H](C)[C@@H](O[C@@H]2O[C@@H](C)[C@@H](O)[C@@H](O)[C@H]2O)/C(C)=C/C=C/[C@H](C)C/C(C)=C/[C@@H](C)[C@H](O)C[C@@H](O)/C(C)=C/[C@H]1C	8.4
25 (≈ 39.4 µM)	50 (≈ 78.8 µM)	C/C=C(\C)[C@H]1OC(=O)[C@H](C)[C@@H](O[C@@H]2O[C@@H](C)[C@@H](O)[C@@H](O)[C@H]2O)/C(C)=C/C=C/[C@H](C)C/C(C)=C/[C@@H](C)[C@H](O)C[C@@H](O)/C(C)=C/[C@H]1C	13.9
